In patent publication US8003649B2 (AstraZeneca AB, priority 2007, dated 2011):

target: T1, Androgen Receptor (AR) (Homo sapiens, UniProt P10275, T878A); test: LNCaP Androgen Receptor Down-regulation Cell Assay (immunofluorescence end point); type: cell-based; settings: LNCaP prostate carcinoma cells, compound incubation 20-22 hours, 50% reduction of the AR signal; read-out: Androgen Receptor Down-regulation Assay (a) IC50/μM
T1 construct: cell based immuno-fluorescence assay using the LNCaP prostate epithelial cell line; endogenous in cells; host or cells: LNCaP clone FGC (ATCC CRL-1740)
T1 sequence (P10275 1-920 T878A): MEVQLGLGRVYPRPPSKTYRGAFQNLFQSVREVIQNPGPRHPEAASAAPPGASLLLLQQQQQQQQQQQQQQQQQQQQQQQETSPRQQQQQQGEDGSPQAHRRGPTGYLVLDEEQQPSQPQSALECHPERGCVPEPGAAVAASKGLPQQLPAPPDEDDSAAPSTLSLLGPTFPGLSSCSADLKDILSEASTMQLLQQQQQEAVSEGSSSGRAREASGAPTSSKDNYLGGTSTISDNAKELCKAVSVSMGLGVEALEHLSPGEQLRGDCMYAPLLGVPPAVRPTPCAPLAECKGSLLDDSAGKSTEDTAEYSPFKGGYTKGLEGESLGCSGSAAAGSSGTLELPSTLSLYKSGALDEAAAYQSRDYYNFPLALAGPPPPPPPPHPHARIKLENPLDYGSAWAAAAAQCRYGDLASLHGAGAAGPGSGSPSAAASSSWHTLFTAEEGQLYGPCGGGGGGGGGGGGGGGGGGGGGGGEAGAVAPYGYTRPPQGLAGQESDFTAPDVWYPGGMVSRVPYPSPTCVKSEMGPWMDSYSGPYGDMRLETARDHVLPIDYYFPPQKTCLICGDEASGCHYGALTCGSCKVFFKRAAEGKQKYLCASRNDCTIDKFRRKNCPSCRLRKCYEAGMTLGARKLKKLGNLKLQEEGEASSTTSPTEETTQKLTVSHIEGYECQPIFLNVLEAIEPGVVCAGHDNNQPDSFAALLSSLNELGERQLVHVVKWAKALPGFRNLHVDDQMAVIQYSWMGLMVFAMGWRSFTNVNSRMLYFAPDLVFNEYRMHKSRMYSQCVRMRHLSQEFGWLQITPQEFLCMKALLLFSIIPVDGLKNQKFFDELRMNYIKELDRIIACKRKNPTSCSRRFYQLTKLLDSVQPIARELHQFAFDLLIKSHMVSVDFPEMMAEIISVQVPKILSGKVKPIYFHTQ
How it was run: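 LNCaP cells in medium with 5% charcoal-stripped FBS were plated overnight, then treated with a compound dilution series for 20-22 h at 37° C. After fixation, permeabilisation and immunostaining, AR-associated green fluorescence was quantified by laser-scanning microplate cytometry; AR down-regulation expressed as IC50 from fitted dose-response curves.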

SMILES | DC50
N#Cc1ccc(O[C@H]2CCN(c3ccc4nnc(C(F)(F)F)n4n3)C2)cc1 [Example 591] | 20 µM
FC(F)(F)c1ccc(O[C@H]2CCN(c3ccc4nnc(C(F)(F)F)n4n3)C2)cc1 [Example 592] | 9.6 µM
C[C@H]1CN(Cc2cccnc2)CCN1c1ccc2nnc(C(F)(F)F)n2n1 [Example 593, 6-[(2S)-2-methyl-4-(pyridin-3-ylmethyl)piperazin-1-yl]-3-(trifluoromethyl)[1,2,4]triazolo[4,3-b]pyridazine] | 7.2 µM
C[C@H]1CN(Cc2ccc(F)c(F)c2)CCN1c1ccc2nnc(C(F)(F)F)n2n1 [Example 595] | 6.8 µM
C[C@H]1CN(Cc2cc(F)cc(F)c2)CCN1c1ccc2nnc(C(F)(F)F)n2n1 [Example 596] | 4.2 µM
C[C@H]1CN(Cc2ccc(F)cc2)CCN1c1ccc2nnc(C(F)(F)F)n2n1 [Example 597] | 2.9 µM
C[C@H]1CN(Cc2ccc(F)c(C#N)c2)CCN1c1ccc2nnc(C(F)(F)F)n2n1 [Example 598] | 4.2 µM
C[C@@H]1CN(Cc2cccnc2)CCN1c1ccc2nnc(C(F)(F)F)n2n1 [Example 599, 6-[(2R)-2-methyl-4-(pyridin-3-ylmethyl)piperazin-1-yl]-3-(trifluoromethyl)[1,2,4]triazolo[4,3-b]pyridazine] | 5.8 µM
C[C@@H]1CN(Cc2ccc(C#N)cc2)CCN1c1ccc2nnc(C(F)(F)F)n2n1 [Example 600] | 0.85 µM
C[C@@H]1CN(Cc2ccc(F)c(F)c2)CCN1c1ccc2nnc(C(F)(F)F)n2n1 [Example 601] | 2.2 µM
C[C@@H]1CN(Cc2cc(F)cc(F)c2)CCN1c1ccc2nnc(C(F)(F)F)n2n1 [Example 602] | 1.6 µM
C[C@@H]1CN(Cc2ccc(F)cc2)CCN1c1ccc2nnc(C(F)(F)F)n2n1 [Example 603] | 3.5 µM
C[C@@H]1CN(Cc2ccc(F)c(C#N)c2)CCN1c1ccc2nnc(C(F)(F)F)n2n1 [Example 604] | 1.7 µM
FC(F)(F)c1nnc2ccc(N3CC=C(c4cccnc4)CC3)nn12 [Example 605, 1′-[3-(trifluoromethyl)[1,2,4]triazolo[4,3-b]pyridazin-6-yl]-1′,2′,3′,6′-tetrahydro-3,4′-bipyridine] | 5 µM
Fc1cnccc1C1=CCN(c2ccc3nnc(C(F)(F)F)n3n2)CC1 [Example 606] | 2.7 µM
Fc1cncc(C2=CCN(c3ccc4nnc(C(F)(F)F)n4n3)CC2)c1 [Example 607] | 7.4 µM
CCOC(=O)c1cncc(C2=CCN(c3ccc4nnc(C(F)(F)F)n4n3)CC2)c1 [Example 608] | 2.7 µM
COc1ncc(C2=CCN(c3ccc4nnc(C(F)(F)F)n4n3)CC2)cc1F [Example 609] | 6.6 µM
COc1ncc(C2CCN(c3ccc4nnc(C(F)(F)F)n4n3)CC2)cc1F [Example 614] | > 12 µM
FC(F)(F)c1nnc2ccc(N3CCC(Oc4cncc(Cl)c4)CC3)nn12 [Example 617] | 4.3 µM
FC(F)(F)c1nnc2ccc(N3CCC(Oc4ccc(Cl)cn4)CC3)nn12 [Example 618] | > 4 µM
FC(F)(F)c1nnc2ccc(N3CCC(Oc4ccncn4)CC3)nn12 [Example 619] | 4.5 µM
FC(F)(F)c1ccnc(OC2CCN(c3ccc4nnc(C(F)(F)F)n4n3)CC2)c1 [Example 621] | 2.3 µM
Cc1ccnc(OC2CCN(c3ccc4nnc(C(F)(F)F)n4n3)CC2)n1 [Example 622] | 7.4 µM
Fc1ccc(OC2CCN(c3ccc4nnc(C(F)(F)F)n4n3)CC2)cc1 [Example 625] | 1.4 µM
FC(F)(F)c1cccc(OC2CCN(c3ccc4nnc(C(F)(F)F)n4n3)CC2)c1 [Example 626] | 1.1 µM
N#Cc1ccc(OC2CCN(c3ccc4nnc(C(F)(F)F)n4n3)CC2)cc1 [Example 627] | 1.7 µM
N#Cc1ccc(OC2CCN(c3ccc4nnc(C(F)(F)F)n4n3)CC2)nc1 [Example 628] | 2.7 µM

Now from value to compound:

DC50 | SMILES
3.2 µM | FC(F)(F)c1nnc2ccc(N3CCC(c4cccnc4)CC3)nn12 [Example 610, 6-(4-pyridin-3-ylpiperidin-1-yl)-3-(trifluoromethyl)[1,2,4]triazolo[4,3-b]pyridazine]
1.6 µM | Fc1cnccc1C1CCN(c2ccc3nnc(C(F)(F)F)n3n2)CC1 [Example 611]
> 13 µM | Fc1cncc(C2CCN(c3ccc4nnc(C(F)(F)F)n4n3)CC2)c1 [Example 612]
0.88 µM | Nc1ccc(C2CCN(c3ccc4nnc(C(F)(F)F)n4n3)CC2)cc1 [Example 615, 4-[1-[3-(trifluoromethyl)[1,2,4]triazolo[4,3-b]pyridazin-6-yl]piperidin-4-yl]aniline]
1.7 µM | Nc1cccc(C2CCN(c3ccc4nnc(C(F)(F)F)n4n3)CC2)c1 [Example 616, 3-[1-[3-(trifluoromethyl)[1,2,4]triazolo[4,3-b]pyridazin-6-yl]piperidin-4-yl]aniline]
0.89 µM | N#Cc1cccc(OC2CCN(c3ccc4nnc(C(F)(F)F)n4n3)CC2)c1 [Example 623]
2.4 µM | CN(CCO)C(=O)c1ccc(C2CCN(c3ccc4nnc(C(F)(F)F)n4n3)CC2)cc1 [Example 630]
1.1 µM | O=C(NCCN1CCCC1)c1ccc(C2CCN(c3ccc4nnc(C(F)(F)F)n4n3)CC2)cc1 [Example 631]
1.9 µM | COCCNC(=O)c1ccc(C2CCN(c3ccc4nnc(C(F)(F)F)n4n3)CC2)cc1 [Example 633]
1.1 µM | CN(C)C(=O)c1ccc(C2CCN(c3ccc4nnc(C(F)(F)F)n4n3)CC2)cc1 [Example 634]
2.9 µM | O=C(c1ccc(C2CCN(c3ccc4nnc(C(F)(F)F)n4n3)CC2)cc1)N1CCOCC1 [Example 635]
20 µM | O=C(c1ccc(C2CCN(c3ccc4nnc(C(F)(F)F)n4n3)CC2)cc1)N1CCNCC1 [Example 636]
1.8 µM | CCNC(=O)c1ccc(C2CCN(c3ccc4nnc(C(F)(F)F)n4n3)CC2)cc1 [Example 637]
0.9 µM | O=C(NCCN1CCOCC1)c1ccc(C2CCN(c3ccc4nnc(C(F)(F)F)n4n3)CC2)cc1 [Example 638, N-(2-morpholin-4-ylethyl)-4-[1-[3-(trifluoromethyl)[1,2,4]triazolo[4,3-b]pyridazin-6-yl]piperidin-4-yl]benzamide]
0.92 µM | Cc1cc(CNC(=O)c2ccc(C3CCN(c4ccc5nnc(C(F)(F)F)n5n4)CC3)cc2)no1 [Example 640]
1.4 µM | CN1CCC(NC(=O)c2ccc(C3CCN(c4ccc5nnc(C(F)(F)F)n5n4)CC3)cc2)CC1 [Example 641]
1.4 µM | CN1CCN(CCNC(=O)c2ccc(C3CCN(c4ccc5nnc(C(F)(F)F)n5n4)CC3)cc2)CC1 [Example 642]
6 µM | CN(CCO)C(=O)c1cccc(C2CCN(c3ccc4nnc(C(F)(F)F)n4n3)CC2)c1 [Example 643]
1.5 µM | O=C(NCCN1CCCC1)c1cccc(C2CCN(c3ccc4nnc(C(F)(F)F)n4n3)CC2)c1 [Example 644]
2.3 µM | CN1CCN(C(=O)c2cccc(C3CCN(c4ccc5nnc(C(F)(F)F)n5n4)CC3)c2)CC1 [Example 645]
6.1 µM | O=C(c1cccc(C2CCN(c3ccc4nnc(C(F)(F)F)n4n3)CC2)c1)N1CCNCC1 [Example 646]
1.7 µM | CN(C)C(=O)c1cccc(C2CCN(c3ccc4nnc(C(F)(F)F)n4n3)CC2)c1 [Example 647]
2.1 µM | O=C(c1cccc(C2CCN(c3ccc4nnc(C(F)(F)F)n4n3)CC2)c1)N1CCOCC1 [Example 648]
2.3 µM | CNC(=O)c1cccc(C2CCN(c3ccc4nnc(C(F)(F)F)n4n3)CC2)c1 [Example 649]
